Experimental data published in patent US8153410B2, “Alternate morpheein forms of allosteric proteins as a target for the development of bioactive molecules” (Fox Chase Cancer Center, priority 2003, dated 2012).
Like-named read-outs stand apart in the source and are kept apart here.

Experiments:
pea PBGS = target: T1, pea PBGS (Pisum sativum, UniProt P30124, C394A); experiment: native PAGE gel shift of pea PBGS octamer/hexamer equilibrium; type: biochemical
T1 construct: made in house
Procedure: FIG. 32(a) The inhibitor morphlock-1 is illustrated as posed by Glide. The subunits A, B, and E are illustrated as ribbon diagram. Morphlock-1 is shown with carbon atoms and illustrated as ball and stick. FIG. 32(b) The chemical structure of morphlock-1. […] Pea PBGS was incubated with various concentrations of morphlock-1 (in a DMSO solution). Each concentration of morphlock-1 with a fixed amount of DMSO was incubated with protein for 30 minutes at 37° C. prior to resolution on 12.5% polyacrylamide native PhastGels. […] (d) The protein concentration dependence of pea PBGS specific activity is illustrated. PBGS (at varied concentrations) was incubated in the presence of DMSO (●) or 50 μM morphlock-1 in DMSO (∘) for 30 minutes at 37° C. prior to assay. The final concentration of morphlock-1 in the inhibited assay was 5 μM, and the concentration of PBGS in the inhibited and control assays ranged from 0.05-50 μg/mL (0.014-1.4 μM).
FIG. 34(b) Hexameric pea PBGS (1 mg/mL, prepared by dialysis against low ionic strength) was incubated with DMSO (left) or 500 μM morphlock-1 (right) for 30 minutes at 37° C. ALA was added at the indicated concentrations, and the incubation was continued for 30 minutes prior to resolution on 12.5% polyacrylamide native PhastGels. […] Morphlock-1 concentrations are listed at the top of each lane. Protein samples for left-most gel were at 50 μg/ml (1.4 μM subunit) and 1 mM ALA; protein detection is by silver staining. Samples for the middle gel were also at 50 μg/ml (1.4 μM subunit) and 1 mM ALA; the gel was activity stained. Samples for the right-most gel were at 5 μg/ml (0.14 μM subunit) and 10 mM magnesium; protein detection is by Krypton Infrared staining.
FIG. 41 illustrates native PAGE screening of compounds. Octameric PBGS (1 mg/mL) was incubated with DMSO or 2 mM of each compound for 30 minutes at 37° C. prior to resolution on 12.5% polyacrylamide native PhastGels. […] Each compound is identified by its box address. The compound B6 is morphlock-1.
The interconversion of pea PBGS hexamer and octamer is a dynamic equilibrium that responds to protein concentration, substrate concentration, magnesium concentration, inhibitor concentration, and ionic strength.

human PBGS = target: T2, human PBGS (Homo sapiens, UniProt P13716); experiment: human PBGS activity assay with morphlock-1; type: biochemical
T2 sequence (P13716 1-330): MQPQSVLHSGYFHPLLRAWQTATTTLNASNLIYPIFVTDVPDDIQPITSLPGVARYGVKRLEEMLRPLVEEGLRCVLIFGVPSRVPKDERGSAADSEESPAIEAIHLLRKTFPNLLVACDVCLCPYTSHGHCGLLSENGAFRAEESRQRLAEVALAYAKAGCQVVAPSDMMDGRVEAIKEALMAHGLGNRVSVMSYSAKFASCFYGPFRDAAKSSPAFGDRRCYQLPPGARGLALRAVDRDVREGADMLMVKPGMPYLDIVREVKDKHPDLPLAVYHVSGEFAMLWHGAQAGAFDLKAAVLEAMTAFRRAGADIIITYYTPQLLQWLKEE
Procedure: FIG. 33 illustrates the species-specific effects of morphlock-1 on PBGS—FIG. 33(a) Dose-response curves showing morphlock-1 inhibition of pea PBGS at 1 μg/ml (∘) and human PBGS at 0.6 μg/ml (Δ) and 10 μg/ml (□). The proteins were incubated in the presence of 10× inhibitor for 30 minutes at 37° C. prior to assay. The concentrations on the X-axis represent the final concentration of morphlock-1 in the assay. FIG. 33(b). The IC50 for morphlock-1 is a function of pea PBGS concentration. IC50 values were determined as per part (a) using the noted concentrations of pea PBGS. (c) Native PAGE evaluation of the effect of morphlock-1 on the quaternary structure equilibria of PBGS (˜1 mg/ml) from D. melanogaster, P. aeruginosa, V. cholerae, and H. sapiens. Note that the charge/mass ratio is not the same for PBGS from different species.
The putative morphlock-1 binding site is phylogenetically variable (see below). As such, morphlock-1 would not be expected to inhibit human PBGS. The effect of morphlock-1 on the activity of human PBGS was also determined at the midpoint of the protein concentration-dependent specific activity. […] To further establish the species-selectivity of morphlock-1, the gel shift assay was also carried out for PBGS from P. aeruginosa, and V. cholerae.

T1 sequence (P30124 69-398 C394A): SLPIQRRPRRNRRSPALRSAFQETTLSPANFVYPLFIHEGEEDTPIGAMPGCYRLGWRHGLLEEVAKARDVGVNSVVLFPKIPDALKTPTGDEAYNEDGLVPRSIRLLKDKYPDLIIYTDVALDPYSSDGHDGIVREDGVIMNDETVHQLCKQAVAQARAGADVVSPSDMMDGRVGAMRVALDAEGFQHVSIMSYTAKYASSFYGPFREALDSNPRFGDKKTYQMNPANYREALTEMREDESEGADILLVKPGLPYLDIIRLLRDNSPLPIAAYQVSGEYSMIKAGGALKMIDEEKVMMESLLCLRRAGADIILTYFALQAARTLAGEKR

Compound: O=C1Nc2ccc(S(=O)(=O)NCC(O)c3ccc([N+](=O)[O-])cc3)c3cccc1c23 (stereo not drawn) [morphlock-1, 2-oxo-1,2-dihydro-benzo(cd)indole-6-sulfonic acid[2-hydroxy-2-(4-nitro-phenyl)-ethyl]-amide]
- IC50 (pea PBGS; 5 μg/ml pea PBGS and 10 mM magnesium, Krypton IR detection, read-out: apparent IC50, native PAGE): 1 to 3 µM
- IC50 (pea PBGS; 50 μg/ml (1.4 μM subunit) pea PBGS and 1 mM ALA, silver stain, read-out: apparent IC50, native PAGE): ~100 µM
- native PAGE screening: shift of oligomeric equilibrium (pea PBGS; PBGS 1 mg/mL, 2 mM compound, 30 minutes at 37° C.): dramatically shift the oligomeric equilibrium to the hexamer
- hexamer converted to octamer by ALA in the presence of morphlock-1 (pea PBGS; hexameric pea PBGS 1 mg/mL, 2 mM morphlock-1, 5 mM ALA): ~50%
- IC50 (pea PBGS; non-equilibrium conditions, 1 mg/ml (~28 μM subunits) pea PBGS, read-out: observed IC50 in native PAGE analyses): ~500 µM
- effect on pea PBGS morpheein equilibrium, native PAGE (pea PBGS; pea PBGS 1 mg/mL, various concentrations of morphlock-1, 30 minutes at 37° C.): draws the pea PBGS morpheein equilibrium entirely to the hexamer in a dose dependent fashion
- Coomassie and activity stained native PAGE: binding to hexameric assembly (pea PBGS; pea PBGS 1 mg/ml, morphlock-1 at 2 mM): prevents the substrate mediated conversion of hexamer to octamer
- effect on the protein concentration-dependent specific activity for human PBGS (human PBGS; 5 μM morphlock-1): has no affect
- inhibition of human PBGS activity (human PBGS; midpoint of the protein concentration-dependent specific activity): does not inhibit human PBGS
